Test results taken from PMC12321279, “Novel 4,5‐Dihydrothiazole‐Phenylpiperazine Derivatives: Synthesis, Docking Studies and Pharmacological Evaluation as Serotonergic Agents” (Chemmedchem, 2025).
Where two headings read alike, the source gives them in different places.

Key:
[1] = biological target: T1, 5‐HT2C receptor (Rattus norvegicus, UniProt P08909); assay: 5‐HT2C competition binding assay ([3H]mesulergine, frontal cortex membranes); conditions: 5 nM [3H]mesulergine
T1 construct: 10 μM pargyline and 160μg of the frontal cortex membrane suspension; from tissue; host or cells: rat (Sprague-Dawley) frontal cortex membranes
T1 sequence (P08909 33-460): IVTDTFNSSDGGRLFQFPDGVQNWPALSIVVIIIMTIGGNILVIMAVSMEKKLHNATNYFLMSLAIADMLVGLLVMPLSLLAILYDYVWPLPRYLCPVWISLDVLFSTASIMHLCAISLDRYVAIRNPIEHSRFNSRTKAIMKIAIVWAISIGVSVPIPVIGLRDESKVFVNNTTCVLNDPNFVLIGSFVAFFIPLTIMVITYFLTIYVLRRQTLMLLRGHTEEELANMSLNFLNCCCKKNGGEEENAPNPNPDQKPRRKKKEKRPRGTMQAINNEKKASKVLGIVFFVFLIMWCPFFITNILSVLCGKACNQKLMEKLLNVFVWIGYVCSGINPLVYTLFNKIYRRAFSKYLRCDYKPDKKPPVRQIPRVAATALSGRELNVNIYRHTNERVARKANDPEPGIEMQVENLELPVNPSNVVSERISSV
Method: (§1) Sprague‐Dawley rats were sacrificed by isoflurane overdose. Brains were rapidly removed and placed on ice. Hippocampi (for the 5‐HT1A assay) and frontal cortices (for the 5‐HT2A and 5‐HT2C assays) were dissected on a Petri dish. The tissue from 10 rats was homogenized in 30 vol. homogenization buffer (50 mM Tris–HCl, […], 1 mM EDTA, 1 mM dithiothreitol) with a handheld Teflon‐glass homogenizer. The homogenate was centrifuged at 48,000 × g at 4 °C for 15 min. The pellet was suspended and homogenized in the homogenization buffer and incubated for 10 min. at 36 °C. The centrifugation and suspension steps were repeated twice. The final pellet was homogenized in 5 vol. 50 mM Tris–HCl, pH = 7.4 buffer and stored at −80 °C for no longer than 6 months. […] For the 5‐HT2C assay, compounds were incubated in duplicate with 5 nM [^3H]mesulergine (specific activity: 80.2 Ci mmol^−1, Revvity, MA, USA) for 60 min. at 36 °C in a 50 mM Tris‐HCl (pH 7.4) buffer, supplemented with 5 mM MgCl2, 140 mM NaCl, 1 mM DTT, 1 mM CaCl2, 10 μM pargyline and 160μg of the frontal cortex membrane suspension. Non‐specific binding was determined with 10μM serotonin. The final DMSO concentration in the assay was 5%. After incubation, the reaction mixture was deposited onto Unifilter GF/C plates (Revvity, MA, USA) presoaked in 0.4% PEI (or 0.4% PEI and 0.5% Triton X‐100 for the 5‐HT2C assay) for 1 h with the FilterMate‐96 Harvester (Revvity, MA, USA). Then, each well was washed with 2 mL of 50 mM Tris–HCl (pH 7.4) buffer to separate bound ligands from free and the plates were left to dry overnight. Then, 35μl of Microscint‐20 scintillation fluid (Revvity, MA, USA) was added to each filter well and left to equilibrate for 2h. Filter‐bound radioactivity was counted in a MicroBeta2 LumiJet scintillation counter (Revvity, MA, USA). Binding curves were fitted with one site non‐linear regression. Binding affinity (pKi and Ki) for each compound was calculated from the […] values with the Cheng‐Prusoff equation from two separate experiments.

[2] = biological target: T2, 5‐HT1A receptor (Rattus norvegicus, UniProt P19327); assay: 5‐HT1A competition binding assay ([3H]8‐OH‐DPAT, hippocampal membranes); conditions: 1 nM [3H]8‐OH‐DPAT
T2 construct: 80 μg of hippocampal membrane suspension (the 5‐HT1A assay); from tissue; host or cells: rat (Sprague-Dawley) hippocampus membranes
T2 sequence (P19327 1-422): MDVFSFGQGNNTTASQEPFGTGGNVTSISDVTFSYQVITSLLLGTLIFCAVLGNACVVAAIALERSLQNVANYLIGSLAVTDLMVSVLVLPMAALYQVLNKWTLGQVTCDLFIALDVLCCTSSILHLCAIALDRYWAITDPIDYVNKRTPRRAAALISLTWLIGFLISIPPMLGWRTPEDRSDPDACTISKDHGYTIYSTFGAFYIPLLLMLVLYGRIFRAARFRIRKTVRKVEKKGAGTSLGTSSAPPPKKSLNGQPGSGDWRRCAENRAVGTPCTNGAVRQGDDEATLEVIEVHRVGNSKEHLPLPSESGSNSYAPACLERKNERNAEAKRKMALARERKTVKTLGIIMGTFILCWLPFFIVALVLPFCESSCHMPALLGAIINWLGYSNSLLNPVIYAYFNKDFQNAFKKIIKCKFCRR
Method: as §1

[3] = biological target: T3, 5‐HT2A receptor (Rattus norvegicus, UniProt P14842); assay: Inhibition of 5‐HT‐evoked contractions in isolated rat ileum; set-up: segments (1–1.5 cm) of ileum were removed, flushed of luminal contents, and placed in Krebs solution; from tissue; host or cells: isolated rat (Sprague-Dawley) ileum segments; conditions: 5‐HT 10^−5 M, compounds 10^−8–10^−5 M; for Emax: read-out: EMAX, maximal inhibitory effect on 5‐HT‐induced contractions in the rat ileum; for IC50: IC50, inhibition of 5‐HT‐induced contractions in the rat ileum, contact time 10 min
Method: Male rats (Sprague‐Dawley, 160–200 g; Charles River Laboratories; Calco, Italy) were manipulated and cared for in strict compliance with the principles of laboratory animal care. Experimental procedures were conducted in conformity with Italian (D.L. 26/2014) and European (directive 2010/63/EU) regulations on the protection of animals used for scientific purposes and approved by the Italian Ministry. Animal housing complied with recent pharmacological guidance.^[ [40] ^] All animals weighing 160–200 g were used after a 1‐week acclimation period (temperature 23 ± 2 °C; humidity 60%, free access to water and standard food).
The segments were prepared as previously described:^[ [41] ^] the segments were set up in such a way as to record contractions mainly from the longitudinal axis, in an organ bath containing 20 mL of Krebs solution, bubbled with 95% O2 and 5% CO2 and maintained at 37 °C. The tissues were connected to an isotonic transducer (load: 0.5 g), connected to Power Lab system (Ugo Basile, Comerio, Italy). Ileal segments were equilibrated for 60 min^[ [16] ^] followed by three repeated additions of submaximal concentration of 5‐HT (10^−5 M) in order to record stable control contractions. […] The contact time for each concentration was 10 min. The compounds were dissolved in DMSO. […] Results are expressed as mean (SEM). […] The IC50 and Emax values were calculated with the aid of a computer program (GraphPad Prism 5).

[4] = biological target: T3, 5‐HT2A receptor; assay: 5‐HT2A competition binding assay ([3H]ketanserin, frontal cortex membranes); set-up: from tissue; host or cells: rat (Sprague-Dawley) frontal cortex membranes; conditions: 1 nM [3H]ketanserin
[5] = 95% CI in brackets, read-out: 5‐HT2C Ki (95% CI)
[6] = read-out: 5‐HT1A pKi (converted)
[7] = 95% CI in brackets, read-out: 5‐HT2A Ki (95% CI)
[8] = 95% CI in brackets, read-out: 5‐HT1A Ki (95% CI)
[9] = read-out: 5‐HT2C pKi (converted)
[10] = read-out: 5‐HT2A pKi (converted)

T3 sequence (P14842 whole entry): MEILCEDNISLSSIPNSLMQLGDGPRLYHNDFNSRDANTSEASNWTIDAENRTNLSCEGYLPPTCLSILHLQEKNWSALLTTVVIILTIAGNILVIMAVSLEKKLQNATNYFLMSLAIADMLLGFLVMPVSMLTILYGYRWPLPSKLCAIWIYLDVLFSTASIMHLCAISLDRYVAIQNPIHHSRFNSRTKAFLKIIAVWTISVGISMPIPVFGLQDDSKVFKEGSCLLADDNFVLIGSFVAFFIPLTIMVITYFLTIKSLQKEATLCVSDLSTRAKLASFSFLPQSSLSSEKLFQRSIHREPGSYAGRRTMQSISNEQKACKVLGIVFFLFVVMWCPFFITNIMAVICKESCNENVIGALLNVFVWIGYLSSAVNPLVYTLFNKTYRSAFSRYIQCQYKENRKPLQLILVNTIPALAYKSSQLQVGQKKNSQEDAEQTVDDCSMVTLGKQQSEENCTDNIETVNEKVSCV

SMILES | Ki [1, 5] [nM] | Ki [2, 6] [nM] | Emax [3] [%] | IC50 [3] [nM] | Ki [4, 7] [nM] | Ki [2, 8] [nM] | Ki [1, 9] [nM] | Ki [4, 10] [nM]
O=C(NCCCN1CCN(c2ccc(C3=NCCS3)cc2)CC1)C1CC2C=CC1C2 (stereo not drawn) [FG‐18, Endo‐ N‐(3‐(4‐(4‐(4,5‐dihydrothiazol‐2‐yl)phenyl)piperazin‐1‐yl)propyl) bicyclo[2.2.1]hept‐5‐ene‐2‐carboxamide] | 17 | 20000 | 32.8 | 2970 | 2730 |  |  | 
O=C1C2C3C=CC(C3)C2C(=O)N1OCCCN1CCN(c2ccccc2C2=NCCS2)CC1 (centres unmarked) [FG‐7, 2‐(3‐(4‐(2‐(4,5‐dihydrothiazol‐2‐yl) phenyl) piperazin‐1‐yl) propoxy)‐3a,4,7,7a‐tetrahydro‐1 H‐4,7‐methanoisoindole‐1,3(2 H)‐dione] | 80800 |  | 24.5 | 1790 | 2860 | 54 |  | 
O=C(NCCCN1CCN(c2ccc(C3=NCCS3)cc2)CC1)c1ccncc1 [FG‐6, N‐(3‐(4‐(4‐(4,5‐dihydrothiazol‐2‐yl) phenyl) piperazin‐1‐yl) propyl) isonicotinamide] | 2210 | 26300 |  |  | 4600 |  | 2240 | 
O=C(NCCCN1CCN(c2cccc(C3=NCCS3)c2)CC1)c1ccncc1 [FG‐5, N‐(3‐(4‐(3‐(4,5‐dihydrothiazol‐2‐yl) phenyl) piperazin‐1‐yl) propyl) isonicotinamide] | 12500 |  |  |  | 4430 | 1100 |  | 
O=C(NCCCN1CCN(c2cccc(C3=NCCS3)c2)CC1)c1ccccn1 [FG‐2, N‐(3‐(4‐(3‐(4,5‐dihydrothiazol‐2‐yl) phenyl) piperazin‐1‐yl) propyl) picolinamide] | 816 |  | 25.4 | 6120 | 2900 | 1860 | 832 | 2950
O=C(NCCCN1CCN(c2ccccc2C2=NCCS2)CC1)c1ccncc1 [FG‐4, N‐(3‐(4‐(2‐(4,5‐dihydrothiazol‐2‐yl) phenyl) piperazin‐1‐yl) propyl) isonicotinamide] | 7280 |  |  |  | 4700 | 1540 |  | 
O=C1C2C3C=CC(C3)C2C(=O)N1OCCCN1CCN(c2cccc(C3=NCCS3)c2)CC1 (centres unmarked) [FG‐8, 2‐(3‐(4‐(3‐(4,5‐dihydrothiazol‐2‐yl) phenyl) piperazin‐1‐yl) propoxy)‐3a,4,7,7a‐tetrahydro‐1H‐4,7‐methanoisoindole‐1,3(2H)‐dione] | 46 | 724 | 21.4 | 155 | 1100 | 710 | 46.8 | 1150
O=C(NCCCN1CCN(c2ccccc2C2=NCCS2)CC1)c1ccccn1 [FG‐1, N‐(3‐(4‐(2‐(4,5‐dihydrothiazol‐2‐yl) phenyl) piperazin‐1‐yl) propyl) picolinamide] | 6860 |  |  |  | 3130 | 2350 |  | 
